Data from patent US20210045385A1, “PYRIDAZINONE-SUBSTITUTED KETOXIMES AS HERBICIDES” (FMC Corporation, priority 2018, published 2021).

Columns and labels:
Format in all cases: in vivo
[1] = test system: Italian ryegrass (Lolium multiflorum); experiment: Test A preemergence, visual plant response rating; details: for Ryegrass, Italian plant response rating: 125 g ai/ha, preemergence, 0 to 100 scale, 0 no effect, 100 complete control; for Ryegrass, Italian plant response rating (0 to 100 scale): 500 g ai/ha Preemergence, approx. 10 days
Procedure, shortened: (§1)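 Greenhouse evaluation, approx. 10 days post-spray. Soil: loam + sand. Postemergence stage: 1–2 leaves, height 2–10 cm. Vehicle: non-phytotoxic solvent blend with surfactant. Score: visual injury on a 0 (no effect) to 100 (complete control) scale.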

[2] = test system: barnyardgrass (Echinochloa crus-galli); experiment: Test A preemergence, visual plant response rating; details: for Barnyardgrass plant response rating: 125 g ai/ha, preemergence, 0 to 100 scale, 0 no effect, 100 complete control; for Barnyardgrass plant response rating (0 to 100 scale): 500 g ai/ha Preemergence, approx. 10 days
Procedure, shortened: as §1

[3] = test system: foxtail, giant (giant foxtail, Setaria faberii); experiment: Test A preemergence, visual plant response rating; details: for Foxtail, Giant plant response rating: 125 g ai/ha, preemergence, 0 to 100 scale, 0 no effect, 100 complete control; for Foxtail, Giant plant response rating (0 to 100 scale): 500 g ai/ha Preemergence, approx. 10 days
Procedure, shortened: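 Formulated in a non-phytotoxic solvent mixture including surfactant, each test chemical was sprayed onto the soil surface after sowing, or onto seedlings 2 to 10 cm high. Roughly 10 days later, plants were compared with untreated controls and rated for injury from 0 (no effect) to 100 (complete control).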

kochia (Kochia scoparia) [4] = experiment: Test A preemergence, visual plant response rating; details: for Kochia plant response rating: 125 g ai/ha, preemergence, 0 to 100 scale, 0 no effect, 100 complete control; for Kochia plant response rating (0 to 100 scale): 500 g ai/ha Preemergence, approx. 10 days
Procedure, shortened: as §1

[5] = test system: pigweed (Amaranthus retroflexus); experiment: Test A preemergence, visual plant response rating; details: for Pigweed plant response rating: 125 g ai/ha, preemergence, 0 to 100 scale, 0 no effect, 100 complete control; for Pigweed plant response rating (0 to 100 scale): 500 g ai/ha Preemergence, approx. 10 days
Procedure, shortened: as §1

[6] = test system: ragweed (common ragweed, Ambrosia elatior); experiment: Test A preemergence, visual plant response rating; details: for Ragweed plant response rating: 125 g ai/ha, preemergence, 0 to 100 scale, 0 no effect, 100 complete control; for Ragweed plant response rating (0 to 100 scale): 500 g ai/ha Preemergence, approx. 10 days
Procedure, shortened: as §1

[7] = test system: Italian ryegrass (Lolium multiflorum); experiment: Test A postemergence, visual plant response rating; details: for Ryegrass, Italian plant response rating (0 to 100 scale): 500 g ai/ha, postemergence, 0 is no effect, 100 is complete control; for Ryegrass, Italian plant response rating: Postemergence, 125 g ai/ha, 0 to 100 scale (0 no effect, 100 complete control)
Procedure, shortened: as §1

[8] = test system: barnyardgrass (Echinochloa crus-galli); experiment: Test A postemergence, visual plant response rating; details: for Barnyardgrass plant response rating (0 to 100 scale): 500 g ai/ha, postemergence, 0 is no effect, 100 is complete control; for Barnyardgrass plant response rating: Postemergence, 125 g ai/ha, 0 to 100 scale (0 no effect, 100 complete control)
Procedure, shortened: as §1

[9] = test system: blackgrass (Alopecurus myosuroides); experiment: Test A postemergence, visual plant response rating; details: for Blackgrass plant response rating (0 to 100 scale): 500 g ai/ha, postemergence, 0 is no effect, 100 is complete control; for Blackgrass plant response rating: Postemergence, 125 g ai/ha, 0 to 100 scale (0 no effect, 100 complete control)
Procedure, shortened: as §1

corn (Zea mays) = experiment: Test A postemergence, visual plant response rating; details: for Corn plant response rating (0 to 100 scale): 500 g ai/ha, postemergence, 0 is no effect, 100 is complete control; for Corn plant response rating: Postemergence, 125 g ai/ha, 0 to 100 scale (0 no effect, 100 complete control)
Procedure, shortened: as §1

[10] = test system: foxtail, giant (giant foxtail, Setaria faberii); experiment: Test A postemergence, visual plant response rating; details: for Foxtail, Giant plant response rating (0 to 100 scale): 500 g ai/ha, postemergence, 0 is no effect, 100 is complete control; for Foxtail, Giant plant response rating: Postemergence, 125 g ai/ha, 0 to 100 scale (0 no effect, 100 complete control)
Procedure, shortened: as §1

[11] = test system: galium (catchweed bedstraw, Galium aparine); experiment: Test A postemergence, visual plant response rating; details: for Galium plant response rating (0 to 100 scale): 500 g ai/ha, postemergence, 0 is no effect, 100 is complete control; for Galium plant response rating: Postemergence, 125 g ai/ha, 0 to 100 scale (0 no effect, 100 complete control)
Procedure, shortened: as §1

kochia (Kochia scoparia) [12] = experiment: Test A postemergence, visual plant response rating; details: for Kochia plant response rating (0 to 100 scale): 500 g ai/ha, postemergence, 0 is no effect, 100 is complete control; for Kochia plant response rating: Postemergence, 125 g ai/ha, 0 to 100 scale (0 no effect, 100 complete control)
Procedure, shortened: as §1

[13] = test system: pigweed (Amaranthus retroflexus); experiment: Test A postemergence, visual plant response rating; details: for Pigweed plant response rating (0 to 100 scale): 500 g ai/ha, postemergence, 0 is no effect, 100 is complete control; for Pigweed plant response rating: Postemergence, 125 g ai/ha, 0 to 100 scale (0 no effect, 100 complete control)
Procedure, shortened: as §1

[14] = test system: ragweed (common ragweed, Ambrosia elatior); experiment: Test A postemergence, visual plant response rating; details: for Ragweed plant response rating (0 to 100 scale): 500 g ai/ha, postemergence, 0 is no effect, 100 is complete control; for Ragweed plant response rating: Postemergence, 125 g ai/ha, 0 to 100 scale (0 no effect, 100 complete control)
Procedure, shortened: as §1

[15] = test system: wheat (Triticum aestivum); experiment: Test A postemergence, visual plant response rating; details: for Wheat plant response rating (0 to 100 scale): 500 g ai/ha, postemergence, 0 is no effect, 100 is complete control; for Wheat plant response rating: Postemergence, 125 g ai/ha, 0 to 100 scale (0 no effect, 100 complete control)
Procedure, shortened: as §1

[16] = test system: barnyardgrass (Echinochloa crus-galli); experiment: Test B flooded paddy test, visual plant response rating; details: 250 g ai/ha, Flood, applied to paddy water, 2-leaf stage, evaluated after 13 to 15 days
Procedure, shortened: (§2)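 Compounds added straight into paddy water of pots flooded to 3 cm, with 2-leaf-stage plants of the four species; water level held throughout.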

[17] = test system: ducksalad (Heteranhera limosa); experiment: as above; details: 250 g ai/ha, Flood, applied to paddy water, 2-leaf stage, evaluated after 13 to 15 days
Procedure, shortened: as §2

rice (Oryza sativa) = experiment: as above; details: 250 g ai/ha, Flood, applied to paddy water, 2-leaf stage, evaluated after 13 to 15 days
Procedure, shortened: as §2

[18] = test system: sedge, umbrella (small-flower umbrella sedge, Cyperus difformis); experiment: as above; details: 250 g ai/ha, Flood, applied to paddy water, 2-leaf stage, evaluated after 13 to 15 days
Procedure, shortened: as §2

| SMILES | Ryegrass, Italian plant response rating [1] | Ryegrass, Italian plant response rating (0 to 100 scale) [1] | Barnyardgrass plant response rating [2] | Barnyardgrass plant response rating (0 to 100 scale) [2] | Foxtail, Giant plant response rating [3] | Foxtail, Giant plant response rating (0 to 100 scale) [3] | Kochia plant response rating (kochia (Kochia scoparia) [4]) | Kochia plant response rating (0 to 100 scale) (kochia (Kochia scoparia) [4]) | Pigweed plant response rating [5] | Pigweed plant response rating (0 to 100 scale) [5] | Ragweed plant response rating [6] | Ragweed plant response rating (0 to 100 scale) [6] | Ryegrass, Italian plant response rating (0 to 100 scale) [7] | Ryegrass, Italian plant response rating [7] | Barnyardgrass plant response rating (0 to 100 scale) [8] | Barnyardgrass plant response rating [8] | Blackgrass plant response rating (0 to 100 scale) [9] | Blackgrass plant response rating [9] | Corn plant response rating (0 to 100 scale) (corn (Zea mays)) | Corn plant response rating (corn (Zea mays)) | other results |
| --- | --- | --- | --- | --- | --- | --- | --- | --- | --- | --- | --- | --- | --- | --- | --- | --- | --- | --- | --- | --- | --- |
| CCO/N=C(/c1c(O)c(C)nn(C)c1=O)c1cc(Br)cc2ccccc12 [Compound 113, 4-[(E)-(3-bromo-1-naphthalenyl)(ethoxyimino)methyl]-5-hydroxy-2,6-dimethyl-3(2H)-pyridazinone] | 80 | 100 | 90 | 100 | 100 | 100 | 30 | 90 | 80 | 100 | 90 | 90 | 90 | 80 | 90 | 90 | 100 | 90 | 80 | 40 | Foxtail, Giant plant response rating (0 to 100 scale) [10]: 90; Foxtail, Giant plant response rating [10]: 90; Galium plant response rating (0 to 100 scale) [11]: 100; Galium plant response rating [11]: 100; Kochia plant response rating (0 to 100 scale) (kochia (Kochia scoparia) [12]): 90; Kochia plant response rating (kochia (Kochia scoparia) [12]): 60; Pigweed plant response rating (0 to 100 scale) [13]: 100; Pigweed plant response rating [13]: 100; Ragweed plant response rating (0 to 100 scale) [14]: 100; Ragweed plant response rating [14]: 90; Wheat plant response rating (0 to 100 scale) [15]: 60; Wheat plant response rating [15]: 50; Plant response rating, Barnyardgrass (0 to 100 scale, 0 is no effect, 100 is complete control) [16]: 85; Plant response rating, Ducksalad (0 to 100 scale, 0 is no effect, 100 is complete control) [17]: 75; Plant response rating, Rice (0 to 100 scale, 0 is no effect, 100 is complete control) (rice (Oryza sativa)): 60; Plant response rating, Sedge, Umbrella (0 to 100 scale, 0 is no effect, 100 is complete control) [18]: 50 |
| CON=C(c1c(O)c(C)nn(C)c1=O)c1cccc2ccc(Cl)cc12 [Compound 111] | 30 | 70 | 60 | 70 | 50 | 90 | 20 | 100 | 100 | 100 | 70 | 100 | 90 | 70 | 80 | 50 | 100 | 80 | 30 | 20 | Foxtail, Giant plant response rating (0 to 100 scale) [10]: 70; Foxtail, Giant plant response rating [10]: 60; Galium plant response rating (0 to 100 scale) [11]: 90; Galium plant response rating [11]: 80; Kochia plant response rating (0 to 100 scale) (kochia (Kochia scoparia) [12]): 60; Kochia plant response rating (kochia (Kochia scoparia) [12]): 40; Pigweed plant response rating (0 to 100 scale) [13]: 90; Pigweed plant response rating [13]: 60; Ragweed plant response rating (0 to 100 scale) [14]: 80; Ragweed plant response rating [14]: 80; Wheat plant response rating (0 to 100 scale) [15]: 60; Wheat plant response rating [15]: 0; Plant response rating, Barnyardgrass (0 to 100 scale, 0 is no effect, 100 is complete control) [16]: 0; Plant response rating, Ducksalad (0 to 100 scale, 0 is no effect, 100 is complete control) [17]: 0; Plant response rating, Rice (0 to 100 scale, 0 is no effect, 100 is complete control) (rice (Oryza sativa)): 0; Plant response rating, Sedge, Umbrella (0 to 100 scale, 0 is no effect, 100 is complete control) [18]: 0 |
| CON=C(c1cccc(C(F)(F)F)c1)c1c(O)c(C)nn(C)c1=O [Compound 56] | 0 | 40 | 0 | 50 | 0 | 40 | 0 | 60 | 30 | 90 | 70 | 50 | 50 | 20 | 10 | 0 | 40 | 30 | 0 | 0 | Foxtail, Giant plant response rating (0 to 100 scale) [10]: 0; Foxtail, Giant plant response rating [10]: 0; Galium plant response rating (0 to 100 scale) [11]: 80; Galium plant response rating [11]: 70; Kochia plant response rating (0 to 100 scale) (kochia (Kochia scoparia) [12]): 50; Kochia plant response rating (kochia (Kochia scoparia) [12]): 20; Pigweed plant response rating (0 to 100 scale) [13]: 70; Pigweed plant response rating [13]: 50; Ragweed plant response rating (0 to 100 scale) [14]: 50; Ragweed plant response rating [14]: 10; Wheat plant response rating (0 to 100 scale) [15]: 0; Wheat plant response rating [15]: 0; Plant response rating, Barnyardgrass (0 to 100 scale, 0 is no effect, 100 is complete control) [16]: 0; Plant response rating, Ducksalad (0 to 100 scale, 0 is no effect, 100 is complete control) [17]: 30; Plant response rating, Rice (0 to 100 scale, 0 is no effect, 100 is complete control) (rice (Oryza sativa)): 20; Plant response rating, Sedge, Umbrella (0 to 100 scale, 0 is no effect, 100 is complete control) [18]: 15 |
